# According to patent US9132138B2, “Method for the treatment of multiple sclerosis” (CASI Pharmaceuticals, Inc., priority 2012, dated 2015):
# Assays:
# NF-κB [1] = test: Gaussia luciferase reporter assay in Jurkat cells; type: cell-based; conditions: anti-CD3/28, 5 hours
# Experimental: (§1) FIG. 4A, purified T cells pre-treated with 2ME2 (50 μM) were stimulated with PMA/iono for the indicated times. Whole cell lysates were subjected to immunoblotting to detect the indicated proteins. FIG. 4B, nuclear lysates were analyzed by EMSA to detect DNA binding to NF-κB or AP-1. FP, free probe. FIG. 4C, purified T cells or B cells were pre-treated with vehicle (−) or 50 μM 2ME2 (+) and were stimulated with PMA/iono for 30 or 60 minutes (left), or with anti-CD3/28 or anti-IgM/CD40 for 24 hours (right). Nuclear fractions of lymphocytes were analyzed by immunoblotting to detect nuclear translocation of NFATc1. Lamin A, nuclear protein loading control. NS; non-specific band. […]
# (§2) Luciferase Assays were performed using Jurkat cells harboring a stably integrated Gaussia-luciferase reporter gene under the control of NF-κB or NFAT binding sites (Termed NFAT/NF-κB-GLuc reporter Jurkat). Gaussia luciferase contains a secretion peptide sequence mediating quantitative secretion of active enzyme into the surrounding medium. […] Luciferase activity was measured in 96-well plates using a Orion L microplate Luminometer (Berthold Detection Systems) with an integration time of 3.0 seconds. In parallel, cell viability was determined using the CellTiter-Glo® Luminescent Cell Viability Assay (Promega) and normalized Gluc activity was calculated as the ratio between Gluc activity and cell viability counts.
# NFAT = test: Gaussia luciferase reporter assay in Jurkat cells; type: cell-based; conditions: anti-CD3/28, 5 hours
# Experimental: as §1, §2
# ERβ = ERβ (Homo sapiens, UniProt Q92731); conditions: cited from earlier work
# ERβ, sequence (Q92731 whole entry, species assumed): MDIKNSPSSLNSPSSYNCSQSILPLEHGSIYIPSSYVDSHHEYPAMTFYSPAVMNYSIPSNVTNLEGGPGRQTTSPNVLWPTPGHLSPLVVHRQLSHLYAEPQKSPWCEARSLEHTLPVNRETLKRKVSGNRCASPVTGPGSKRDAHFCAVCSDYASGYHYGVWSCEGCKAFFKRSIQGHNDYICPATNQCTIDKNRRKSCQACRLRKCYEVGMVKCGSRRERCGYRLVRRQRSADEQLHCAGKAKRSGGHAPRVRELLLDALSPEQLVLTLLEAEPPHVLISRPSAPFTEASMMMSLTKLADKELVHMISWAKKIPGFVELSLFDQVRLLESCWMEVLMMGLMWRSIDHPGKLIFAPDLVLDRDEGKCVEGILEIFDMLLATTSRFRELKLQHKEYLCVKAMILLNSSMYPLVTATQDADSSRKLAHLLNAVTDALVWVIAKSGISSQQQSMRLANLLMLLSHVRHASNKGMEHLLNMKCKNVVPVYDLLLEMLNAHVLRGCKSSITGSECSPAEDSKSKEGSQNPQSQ
# AP-1 = test: EMSA of T cell nuclear extracts; type: cell-based, C57/BL6 mice; conditions: 2ME2 50 μM, PMA/iono
# Experimental: (§3) FIG. 4A, purified T cells pre-treated with 2ME2 (50 μM) were stimulated with PMA/iono for the indicated times. Whole cell lysates were subjected to immunoblotting to detect the indicated proteins. FIG. 4B, nuclear lysates were analyzed by EMSA to detect DNA binding to NF-κB or AP-1. FP, free probe. FIG. 4C, purified T cells or B cells were pre-treated with vehicle (−) or 50 μM 2ME2 (+) and were stimulated with PMA/iono for 30 or 60 minutes (left), or with anti-CD3/28 or anti-IgM/CD40 for 24 hours (right). Nuclear fractions of lymphocytes were analyzed by immunoblotting to detect nuclear translocation of NFATc1. Lamin A, nuclear protein loading control. NS; non-specific band. For FIGS. 4A-4C, data are representative of at least two independent experiments. FIG. 4D, stably transfected NFAT and NF-κB Jurkat luciferase reporter cell lines were preincubated with 2ME2 for 30 minutes, and stimulated via crosslinking of anti-CD3/28 antibodies with goat anti-mouse antibodies (GaM). 5 hours later, secreted luciferase activity indicates relative transcriptional activity. Data is reported as normalized luciferase activity and is representative of 3 independent experiments.
# (§4) Nuclear extracts of T cells stimulated with PMA (10 ng/ml)+calcium ionophore A23187 (iono, Sigma) (50 ng/ml) for 30 or 60 minutes were prepared according to a standard protocol. […]
# NF-κB [2] = test: EMSA of T cell nuclear extracts; type: cell-based, C57/BL6 mice; conditions: 2ME2 50 μM, PMA/iono
# Experimental: as §3, §4
# GPER1 = target: T1, GPER1 (Mus musculus, UniProt Q8BMP4); test: GPER1 dependence: CD25/CD69 on CD4+ T cells with G15 or G1; type: cell-based, C57/BL6 mice; conditions: at 6 hours
# T1 construct: Purified C57/BL6 CD4^+ T cells were preincubated with the GPER1 antagonist G15; endogenous in cells; host or cells: purified primary CD4+ T cells from C57/BL6 mice
# T1 sequence (Q8BMP4 1-375): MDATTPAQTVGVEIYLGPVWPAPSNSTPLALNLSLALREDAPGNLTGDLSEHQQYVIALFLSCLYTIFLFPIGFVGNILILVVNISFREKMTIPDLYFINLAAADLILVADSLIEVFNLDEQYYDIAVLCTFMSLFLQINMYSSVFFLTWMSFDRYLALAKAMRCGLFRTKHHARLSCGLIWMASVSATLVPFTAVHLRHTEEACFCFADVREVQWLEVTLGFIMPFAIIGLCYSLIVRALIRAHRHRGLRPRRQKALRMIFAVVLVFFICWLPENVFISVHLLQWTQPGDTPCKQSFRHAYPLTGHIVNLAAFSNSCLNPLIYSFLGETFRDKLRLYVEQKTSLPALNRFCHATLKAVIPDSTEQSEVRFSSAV
# Experimental: FIGS. 6A and 6B show purified CD4^+ T cells that were pretreated with 2-50 μM 2ME2 and/or the GPER1 antagonist G15, and subsequently stimulated with anti-CD3/28 for 6 hours. Activation of CD4^+ T cells was assessed by CD25 and CD69 upregulation, measured by flow cytometry. US, unstimulated. Data is shown as mean±SD for triplicate determinations, and is representative of two separate experiments.
# Purified C57/BL6 CD4^+ T cells were preincubated with the GPER1 antagonist G15 (100 nM, Tocris) and 2ME2 (0-50 μM), or the GPER1 agonist G1 (1-100 nM, Tocris) for 30 minutes, and activated with plate bound anti-CD3 plus soluble anti-CD28. 6 hours later, cells were harvested, stained with anti-CD4 and anti-CD25. CD25 expression was monitored on a HTS FACSCanto II (BD) and analyzed with FloJo (Treestar Inc).
# [3] = oral 2ME2, mice and humans; cited from earlier work
# [4] = system: SEB-induced cytokine production; set-up: species or system C57/BL6 mice; conditions: mouse, in vivo
# [5] = system: LPS-induced TNFα production; test: Serum TNFα in mice injected with LPS; type: in vivo; conditions: 2ME2-pretreated mice injected with LPS
# NFATc1 = NFATc1 nuclear translocation by immunoblotting of nuclear fractions; type: cell-based, C57/BL6 mice
# Experimental: as §3
# T or B cells pre-incubated with vehicle or 2ME2 (50 μM) were stimulated with PMA (10 ng/ml)+iono (50 ng/ml); plate-bound anti-CD3 (30 ng/ml)+anti-CD28 (100 ng/ml); or anti-IgM (1 μg/ml)+anti-CD40 (1 μg/ml). Nuclear extracts (5 μg protein) were immunoblotted with anti-NFATc1 (clone 7A6, Santa Cruz) and anti-Lamin A (clone H-102, Santa Cruz).
smiles,measurement,setting,value
"COc1cc2c(cc1O)CC[C@@H]1[C@@H]2CC[C@]2(C)[C@@H](O)CC[C@@H]12 [2ME2, 2-Methoxyestradiol]",NF-κB-dependent transcriptional activity (normalized luciferase activity),NF-κB [1],no effect
same,transcriptional activation of NFAT via TCR ligation (normalized luciferase activity),NFAT,dramatically inhibited
same,lower affinity than estradiol for ERβ,ERβ,3200 fold
same,AP-1 binding to DNA,AP-1,modest increase
same,binding of NF-κB to DNA,NF-κB [2],normal
same,cell viability,GPER1,"Neither 2ME2, G1 nor G15 affected cell viability"
same,bioavailability,[3],1.5%
same,serum IL-6,[4],significantly less
same,serum TNFα,[4],significantly less
same,serum TNFα levels,[5],no reduction
same,NFATc1 in the nuclear fraction of T cells,"NFATc1; 50 μM 2ME2, 30-60 minutes after PMA/iono stimulation",reduce the amount of NFATc1 present in the nuclear fraction
same,NFATc1 in the nuclear fraction of T cells,"NFATc1; 50 μM 2ME2, 24 hours after anti-CD3/28 stimulation",reduce the amount of NFATc1 present in the nuclear fraction
same,NFATc1 in the nuclear fraction of B cells,"NFATc1; 50 μM 2ME2, 24 hours after anti-IgM/CD40-stimulation",reduce the amount of NFATc1 present in the nuclear fraction
